Measurements from ChEMBL document CHEMBL1201861, “Genomics of Drug Sensitity in Cancer screening data, Wellcome Trust Sanger Institute”.

How the values were obtained:
Assay in all cases: cells
[1] = tested on: D-502MG; format: functional, cell-based, Homo sapiens; conditions: Homo sapiens, D-502MG
Description: SANGER: Inhibition of human D-502MG cell growth in a cell viability assay.

[2] = tested on: RH-1; format: functional, cell-based, Homo sapiens; conditions: Homo sapiens, RH-1;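 note: growth inhibition of human RH-1 cells, read out with a cell viability assay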
Description: SANGER: Inhibition of human RH-1 cell growth in a cell viability assay.

[3] = tested on: SJSA-1; format: functional, cell-based, Homo sapiens; conditions: Homo sapiens, SJSA-1;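 note: growth inhibition of human SJSA-1 cells, read out through a cell viability measurement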
Description: SANGER: Inhibition of human SJSA-1 cell growth in a cell viability assay.

[4] = tested on: SNB-75; format: functional, cell-based, Homo sapiens; conditions: Homo sapiens, SNB-75;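 note: cell viability assay measuring growth inhibition of human SNB-75 cells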
Description: SANGER: Inhibition of human SNB75 cell growth in a cell viability assay.

[5] = tested on: ES7; format: functional, cell-based, Homo sapiens; conditions: Homo sapiens, ES7;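 note: growth inhibition of cultured human ES7 cells, read out as cell viability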
Description: SANGER: Inhibition of human ES7 cell growth in a cell viability assay.

[6] = tested on: L-428; format: functional, cell-based, Homo sapiens; conditions: Homo sapiens, L-428
Description: SANGER: Inhibition of human L-428 cell growth in a cell viability assay.

[7] = tested on: LNCaP-Clone-FGC; format: functional, cell-based, Homo sapiens; conditions: Homo sapiens, LNCaP-Clone-FGC
Description: SANGER: Inhibition of human LNCaP-Clone-FGC cell growth in a cell viability assay.

[8] = tested on: NCI-H1092; format: functional, cell-based, Homo sapiens; conditions: Homo sapiens, NCI-H1092;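 note: cell growth inhibition measured with a cell viability assay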
Description: SANGER: Inhibition of human NCI-H1092 cell growth in a cell viability assay.

[9] = tested on: MLMA; format: functional, cell-based, Homo sapiens; conditions: Homo sapiens, MLMA;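 note: growth inhibition of MLMA cells (human), determined through a cell viability readout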
Description: SANGER: Inhibition of human MLMA cell growth in a cell viability assay.

[10] = tested on: EM-2; format: functional, cell-based, Homo sapiens; conditions: Homo sapiens, EM-2;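 note: growth inhibition of EM-2 cells, read out with a cell viability assay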
Description: SANGER: Inhibition of human EM-2 cell growth in a cell viability assay.

[11] = tested on: NB12; format: functional, cell-based, Homo sapiens; conditions: Homo sapiens, NB12;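 note: growth inhibition of human NB12 cells, read out by a cell viability assay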
Description: SANGER: Inhibition of human NB12 cell growth in a cell viability assay.

[12] = tested on: HD-MY-Z; format: functional, cell-based, Homo sapiens; conditions: Homo sapiens, HD-MY-Z;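 note: growth inhibition of HD-MY-Z cells, read out with a cell viability assay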
Description: SANGER: Inhibition of human HD-MY-Z cell growth in a cell viability assay.

[13] = tested on: HT-144; format: functional, cell-based, Homo sapiens; conditions: Homo sapiens, HT-144
Description: SANGER: Inhibition of human HT-144 cell growth in a cell viability assay.

[14] = tested on: HT; format: functional, cell-based, Homo sapiens; conditions: Homo sapiens, HT
Description: SANGER: Inhibition of human HT cell growth in a cell viability assay.

[15] = tested on: KMOE-2; format: functional, cell-based, Homo sapiens; conditions: Homo sapiens, KMOE-2;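 note: growth inhibition of human KMOE-2 cells, read out with a cell viability assay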
Description: SANGER: Inhibition of human KMOE-2 cell growth in a cell viability assay.

[16] = tested on: HAL-01; format: functional, cell-based, Homo sapiens; conditions: Homo sapiens, HAL-01;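 note: growth inhibition of human HAL-01 cells, read out with a cell viability assay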
Description: SANGER: Inhibition of human HAL-01 cell growth in a cell viability assay.

[17] = tested on: J-RT3-T3-5; format: functional, cell-based, Homo sapiens; conditions: Homo sapiens, J-RT3-T3-5;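 note: cell viability assay measuring growth inhibition of human J-RT3-T3-5 cells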
Description: SANGER: Inhibition of human J-RT3-T3-5 cell growth in a cell viability assay.

[18] = tested on: NCI-H1355; format: functional, cell-based, Homo sapiens; conditions: Homo sapiens, NCI-H1355;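 note: growth inhibition of human NCI-H1355 cells, read out by a cell viability assay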
Description: SANGER: Inhibition of human NCI-H1355 cell growth in a cell viability assay.

[19] = tested on: TE-1; format: functional, cell-based, Homo sapiens; conditions: Homo sapiens, TE-1;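 note: growth inhibition of the human TE-1 cell line, read out with a cell viability assay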
Description: SANGER: Inhibition of human TE-1 cell growth in a cell viability assay.

[20] = tested on: SF-126; format: functional, cell-based, Homo sapiens; conditions: Homo sapiens, SF-126;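 note: growth inhibition of human SF126 cells, read out with a cell viability assay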
Description: SANGER: Inhibition of human SF126 cell growth in a cell viability assay.

[21] = tested on: BV-173; format: functional, cell-based, Homo sapiens; conditions: Homo sapiens, BV-173
Description: SANGER: Inhibition of human BV-173 cell growth in a cell viability assay.

[22] = tested on: DOHH-2; format: functional, cell-based, Homo sapiens; conditions: Homo sapiens, DOHH-2;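 note: growth inhibition of human DOHH-2 cells, read out with a cell viability assay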
Description: SANGER: Inhibition of human DOHH-2 cell growth in a cell viability assay.

[23] = tested on: EW-11; format: functional, cell-based, Homo sapiens; conditions: Homo sapiens, EW-11;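 note: growth inhibition of human EW-11 cells, measured with a cell viability assay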
Description: SANGER: Inhibition of human EW-11 cell growth in a cell viability assay.

[24] = tested on: D-263MG; format: functional, cell-based, Homo sapiens; conditions: Homo sapiens, D-263MG
Description: SANGER: Inhibition of human D-263MG cell growth in a cell viability assay.

[25] = tested on: LS-411N; format: functional, cell-based, Homo sapiens; conditions: Homo sapiens, LS-411N
[26] = tested on: EW-3; format: functional, cell-based, Homo sapiens; conditions: Homo sapiens, EW-3;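 note: cell viability assay read-out, IC50 reflects inhibition of growth of the EW-3 cells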
Description: SANGER: Inhibition of human EW-3 cell growth in a cell viability assay.

[27] = tested on: TE-10; format: functional, cell-based, Homo sapiens; conditions: Homo sapiens, TE-10;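 note: growth inhibition of TE-10 cells, measured by a cell viability assay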
Description: SANGER: Inhibition of human TE-10 cell growth in a cell viability assay.

[28] = tested on: BB65-RCC; format: functional, cell-based, Homo sapiens; conditions: Homo sapiens, BB65-RCC;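 note: growth inhibition of the cell line, measured with a cell viability assay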
Description: SANGER: Inhibition of human BB65-RCC cell growth in a cell viability assay.

[29] = tested on: TGW; format: functional, cell-based, Homo sapiens; conditions: Homo sapiens, TGW;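 note: growth inhibition of human TGW cells, read out with a cell viability assay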
Description: SANGER: Inhibition of human TGW cell growth in a cell viability assay.

[30] = tested on: no-11; format: functional, cell-based, Homo sapiens; conditions: Homo sapiens;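 note: growth inhibition of human NO-11 cells, read out with a cell viability assay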
Description: SANGER: Inhibition of human no-11 cell growth in a cell viability assay.

[31] = tested on: TE-11; format: functional, cell-based, Homo sapiens; conditions: Homo sapiens, TE-11;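 note: growth inhibition of human TE-11 cells, read out by a cell viability assay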
Description: SANGER: Inhibition of human TE-11 cell growth in a cell viability assay.

[32] = tested on: LOX IMVI; format: functional, cell-based, Homo sapiens; conditions: Homo sapiens, LOX IMVI
Description: SANGER: Inhibition of human LOXIMVI cell growth in a cell viability assay.

[33] = tested on: MV4-11; format: functional, cell-based, Homo sapiens, MV-4-11; conditions: Homo sapiens, MV4-11;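 note: cell viability readout measuring growth inhibition of human MV-4-11 cells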
Description: SANGER: Inhibition of human MV-4-11 cell growth in a cell viability assay.

[34] = tested on: NCI-H747; format: functional, cell-based, Homo sapiens; conditions: Homo sapiens, NCI-H747;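 note: growth inhibition of human NCI-H747 cells, read out by a cell viability assay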
Description: SANGER: Inhibition of human NCI-H747 cell growth in a cell viability assay.

[35] = tested on: TK-10; format: functional, cell-based, Homo sapiens; conditions: Homo sapiens, TK-10;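 note: growth inhibition of TK-10 cells, read out in a cell viability assay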
Description: SANGER: Inhibition of human TK10 cell growth in a cell viability assay.

[36] = tested on: DMS-114; format: functional, cell-based, Homo sapiens; conditions: Homo sapiens, DMS-114
[37] = tested on: LXF-289 cell line; format: functional, cell-based, Homo sapiens; conditions: Homo sapiens, LXF-289
Description: SANGER: Inhibition of human LXF-289 cell growth in a cell viability assay.

[38] = tested on: Calu-6; format: functional, cell-based, Homo sapiens; conditions: Homo sapiens, Calu-6;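 note: growth of human Calu-6 cells, read out by a cell viability assay, IC50 marking inhibition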
Description: SANGER: Inhibition of human Calu-6 cell growth in a cell viability assay.

[39] = tested on: A498; format: functional, cell-based, Homo sapiens; conditions: Homo sapiens, A498;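 note: growth inhibition of human A498 cells, read out with a cell viability assay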
Description: SANGER: Inhibition of human A498 cell growth in a cell viability assay.

[40] = tested on: K5; format: functional, cell-based, Homo sapiens; conditions: Homo sapiens, K5
Description: SANGER: Inhibition of human K5 cell growth in a cell viability assay.

[41] = tested on: COLO-800; format: functional, cell-based, Homo sapiens; conditions: Homo sapiens, COLO-800;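 note: growth inhibition of COLO-800 cells, read out with a cell viability assay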
Description: SANGER: Inhibition of human COLO-800 cell growth in a cell viability assay.

[42] = tested on: MC116; format: functional, cell-based, Homo sapiens; conditions: Homo sapiens, MC116;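 note: growth inhibition of MC116 cells, read out with a cell viability assay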
Description: SANGER: Inhibition of human MC116 cell growth in a cell viability assay.

[43] = tested on: NCI-H23; format: functional, cell-based, Homo sapiens; conditions: Homo sapiens, NCI-H23;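 note: cell viability assay measuring growth inhibition of NCI-H23 cells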
Description: SANGER: Inhibition of human NCI-H23 cell growth in a cell viability assay.

[44] = tested on: A704; format: functional, cell-based, Homo sapiens; conditions: Homo sapiens, A704;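 note: growth inhibition of human A704 cells, read out with a cell viability assay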
Description: SANGER: Inhibition of human A704 cell growth in a cell viability assay.

[45] = tested on: RKO; format: functional, cell-based, Homo sapiens; conditions: Homo sapiens, RKO;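 note: growth inhibition of human RKO cells, read out with a cell viability assay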
Description: SANGER: Inhibition of human RKO cell growth in a cell viability assay.

[46] = tested on: OVCAR-4; format: functional, cell-based, Homo sapiens; conditions: Homo sapiens, OVCAR-4;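 note: growth inhibition of human OVCAR-4 cells, measured with a cell viability assay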
Description: SANGER: Inhibition of human OVCAR-4 cell growth in a cell viability assay.

[47] = tested on: SK-LMS-1; format: functional, cell-based, Homo sapiens; conditions: Homo sapiens, SK-LMS-1;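 note: growth inhibition of human SK-LMS-1 cells, read out with a cell viability assay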
Description: SANGER: Inhibition of human SK-LMS-1 cell growth in a cell viability assay.

[48] = tested on: RCC10RGB; format: functional, cell-based, Homo sapiens; conditions: Homo sapiens, RCC10RGB;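 note: growth inhibition of human RCC10RGB cells, read out by a cell viability assay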
Description: SANGER: Inhibition of human RCC10RGB cell growth in a cell viability assay.

[49] = tested on: C8166; format: functional, cell-based, Homo sapiens; conditions: Homo sapiens, C8166;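 note: growth inhibition of human C8166 cells measured by a cell viability assay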
Description: SANGER: Inhibition of human C8166 cell growth in a cell viability assay.

SMILES: C=C(c1ccc(C(=O)O)cc1)c1cc2c(cc1C)C(C)(C)CCC2(C)C [BEXAROTENE]
- IC50 [1]: > 8 µM
- IC50 [2]: > 8 µM
- IC50 [3]: > 8 µM
- IC50 [4]: > 8 µM
- IC50 [5]: > 8 µM
- IC50 [6]: > 8 µM
- IC50 [7]: > 8 µM
- IC50 [8]: > 8 µM
- IC50 [9]: > 8 µM
- IC50 [10]: > 8 µM
- IC50 [11]: > 8 µM
- IC50 [12]: > 8 µM
- IC50 [13]: > 8 µM
- IC50 [14]: > 8 µM
- IC50 [15]: > 8 µM
- IC50 [16]: > 8 µM
- IC50 [17]: > 8 µM
- IC50 [18]: > 8 µM
- IC50 [19]: > 8 µM
- IC50 [20]: > 8 µM
- IC50 [21]: > 8 µM
- IC50 [22]: > 8 µM
- IC50 [23]: > 8 µM
- IC50 [24]: > 8 µM
- IC50 [25]: > 8 µM
- IC50 [26]: > 8 µM
- IC50 [27]: > 8 µM
- IC50 [28]: > 8 µM
- IC50 [29]: > 8 µM
- IC50 [30]: > 8 µM
- IC50 [31]: > 8 µM
- IC50 [32]: > 8 µM
- IC50 [33]: 0.453 µM
- IC50 [34]: > 8 µM
- IC50 [35]: > 8 µM
- IC50 [36]: > 8 µM
- IC50 [37]: > 8 µM
- IC50 [38]: > 8 µM
- IC50 [39]: > 8 µM
- IC50 [40]: > 8 µM
- IC50 [41]: > 8 µM
- IC50 [42]: > 8 µM
- IC50 [43]: > 8 µM
- IC50 [44]: > 8 µM
- IC50 [45]: > 8 µM
- IC50 [46]: > 8 µM
- IC50 [47]: 7.62 µM
- IC50 [48]: > 8 µM
- IC50 [49]: > 8 µM

SMILES: Oc1ccc2ccccc2c1SSc1c(O)ccc2ccccc12
- IC50 [1]: > 32 µM
- IC50 [2]: 27.8 µM
- IC50 [3]: > 32 µM
- IC50 [4]: > 32 µM
- IC50 [5]: > 32 µM
- IC50 [6]: > 32 µM
- IC50 [7]: > 32 µM
- IC50 [8]: > 32 µM
- IC50 [9]: 29.2 µM
- IC50 [10]: > 32 µM
- IC50 [11]: > 32 µM
- IC50 [12]: > 32 µM
- IC50 [13]: > 32 µM
- IC50 [14]: > 32 µM
- IC50 [15]: > 32 µM
- IC50 [16]: 25.8 µM
- IC50 [17]: > 32 µM
- IC50 [18]: > 32 µM
- IC50 [19]: > 32 µM
- IC50 [20]: > 32 µM
- IC50 [21]: > 32 µM
- IC50 [22]: > 32 µM
- IC50 [23]: > 32 µM
- IC50 [24]: > 32 µM
- IC50 [25]: > 32 µM
- IC50 [26]: 29.5 µM
- IC50 [27]: > 32 µM
- IC50 [28]: > 32 µM
- IC50 [29]: > 32 µM
- IC50 [30]: > 32 µM
- IC50 [31]: > 32 µM
- IC50 [32]: > 32 µM
- IC50 [33]: 9.16 µM
- IC50 [34]: > 32 µM
- IC50 [35]: > 32 µM
- IC50 [36]: > 32 µM
- IC50 [37]: > 32 µM
- IC50 [38]: > 32 µM
- IC50 [39]: > 32 µM
- IC50 [40]: > 32 µM
- IC50 [41]: > 32 µM
- IC50 [42]: > 32 µM
- IC50 [43]: > 32 µM
- IC50 [44]: > 32 µM
- IC50 [45]: 5.28 µM
- IC50 [46]: > 32 µM
- IC50 [47]: 14.8 µM
- IC50 [48]: > 32 µM
- IC50 [49]: > 32 µM

SMILES: N#Cc1c(O)c2c(-c3ccc(-c4ccccc4O)cc3)csc2[nH]c1=O
- IC50 [1]: > 1.02 µM
- IC50 [2]: > 1.02 µM
- IC50 [3]: > 1.02 µM
- IC50 [4]: > 1.02 µM
- IC50 [5]: > 1.02 µM
- IC50 [6]: 0.225 µM
- IC50 [7]: 0.547 µM
- IC50 [8]: 0.541 µM
- IC50 [9]: 0.234 µM
- IC50 [10]: 0.344 µM
- IC50 [11]: > 1.02 µM
- IC50 [12]: 0.148 µM
- IC50 [13]: > 1.02 µM
- IC50 [14]: 0.335 µM
- IC50 [15]: 0.397 µM
- IC50 [16]: > 1.02 µM
- IC50 [17]: 0.378 µM
- IC50 [18]: > 1.02 µM
- IC50 [19]: > 1.02 µM
- IC50 [20]: > 1.02 µM
- IC50 [21]: > 1.02 µM
- IC50 [22]: 0.245 µM
- IC50 [23]: > 1.02 µM
- IC50 [24]: > 1.02 µM
- IC50 [25]: > 1.02 µM
- IC50 [26]: > 1.02 µM
- IC50 [27]: > 1.02 µM
- IC50 [28]: > 1.02 µM
- IC50 [29]: 0.311 µM
- IC50 [30]: > 1.02 µM
- IC50 [31]: > 1.02 µM
- IC50 [32]: 0.0883 µM
- IC50 [33]: 0.0227 µM
- IC50 [34]: > 1.02 µM
- IC50 [35]: > 1.02 µM
- IC50 [36]: > 1.02 µM
- IC50 [37]: > 1.02 µM
- IC50 [38]: > 1.02 µM
- IC50 [39]: > 1.02 µM
- IC50 [40]: > 1.02 µM
- IC50 [41]: > 1.02 µM
- IC50 [42]: 0.1 µM
- IC50 [43]: > 1.02 µM
- IC50 [44]: > 1.02 µM
- IC50 [45]: > 1.02 µM
- IC50 [46]: > 1.02 µM
- IC50 [47]: > 1.02 µM
- IC50 [48]: > 1.02 µM
- IC50 [49]: 0.0662 µM
